Data published in patent publication US6380263B1, “6-substituted pyrimidine 3-oxides for promoting pigmentation of the skin/hair” (Societe L'Oreal, priority 1996, dated 2002).

Legend:
[1] = test system: purified fungal tyrosinase (EC 1.14.18.1); experiment: Modulation of tyrosinase activity (dopachrome formation from L-tyrosine, spectrophotometry at 475 nm); format: biochemical; settings: 100 μl of 1 mM derivative solution (PBS/1% ethanol) in 1000 μl mixture; substrate L-tyrosine; 37° C.; at least 30 minutes
Protocol: In order to determine the activity of the pyrimidine derivatives substituted in position 6, the simple and rapid technique is employed that entails measurement by incubating an optionally purified tyrosinase and one of its substrates in a suitable medium in the presence of a test compound, and then comparing the measurements taken with the results of identical measurements taken during the incubation of optionally purified tyrosinase with one of its substrates in the absence of the test compound.
A purified tyrosinase was incubated in the presence of one of its substrates in a suitable medium, in the presence or absence of a pyrimidine 3-oxide derivative, substituted in position 6. The activity of the enzyme was evaluated by measuring the amount of a product of conversion of the substrate formed during the reaction. The result obtained in the presence of a derivative was compared with the result obtained in the absence of a derivative.
The substrate used was L-tyrosine (marketed by Sigma), a stock solution of which was prepared in phosphate-buffered saline (PBS) at a concentration of 0.5 mM.
The enzyme used was a purified fungal tyrosinase (EC 1.14.18.1) marketed by Sigma. A stock solution of this enzyme was prepared in PBS at a concentration of 5 mg/ml, which represents a concentration of about 19,500 international units of tyrosinase per milliliter.
The product of conversion of the tyrosine by tyrosinase, dopachrome, was measured by spectrophotometry at a wavelength of 475 nm using a Perkin Elmer type apparatus.
The derivative to be tested was prepared in solution in PBS containing 1% ethanol at a concentration of 1 mM.
The following reagents were mixed together in a spectrophotometer cell:
500 μl of tyrosine solution,
390 μl of phosphate buffer,
10 μl of fungal tyrosinase solution,
100 μl of solution of test derivative or of PBS/1% ethanol (control).
The mixture was then incubated at a temperature of 37° C. and the dopachrome formed was measured continuously for at least 30 minutes.
The results obtained are expressed as a % of activation of the tyrosinase activity relative to the value obtained with the control (in the absence of derivative).

hair pigmentation = settings: bald men treated with this compound; cited from earlier work

Activation (% of activation of the tyrosinase activity relative to the control) [1] [%] | Compound | effect on hair pigmentation (hair pigmentation)
60 | CCNc1cc(N(C)C)nc(NCC)[n+]1[O-] [2,4-bis-ethylamino-6-dimethylaminopyrimidine 3-oxide] | –
61 | CNc1cc(N(C)C)nc(NC)[n+]1[O-] [2,4-bis-methylamino-6-dimethylaminopyrimidine 3-oxide] | –
55 | CCCNc1cc(N(C)C)nc(NCCC)[n+]1[O-] [2,4-bis-propylamino-6-dimethylaminopyrimidine 3-oxide] | –
57 | CCCNc1cc(N2CCCCC2)nc(NCCC)[n+]1[O-] [2,4-bis-propylamino-6-piperidinopyrimidine 3-oxide] | –
43 | Nc1nc(N2CCCCC2)cc(NCCO)[n+]1[O-] [2-amino-4-(2-hydroxyethylamino)-6-piperidinopyrimidine 3-oxide] | –
45 | Nc1nc(N2CCCCC2)cc(NCc2ccccc2)[n+]1[O-] [2-amino-4-benzylamino-6-piperidinopyrimidine 3-oxide] | –
51 | CCCCNc1cc(N(C)C)nc(N)[n+]1[O-] [2-amino-4-butylamino-6-dimethylaminopyrimidine 3-oxide] | –
47 | CCCCCCNc1cc(N2CCCCC2)nc(N)[n+]1[O-] [2-amino-4-hexylamino-6-piperidinopyrimidine 3-oxide] | –
46 | CC(C)Nc1cc(N(C)C)nc(N)[n+]1[O-] [2-amino-4-isopropylamino-6-dimethylaminopyrimidine 3-oxide] | –
50 | CNc1cc(N2CCCCC2)nc(N)[n+]1[O-] [2-amino-4-methylamino-6-piperidinopyrimidine 3-oxide] | –
50 | CCCNc1cc(N(C)C)nc(N)[n+]1[O-] [2-amino-4-propylamino-6-dimethylaminopyrimidine 3-oxide] | –
46 | CCCNc1cc(N2CCCCC2)nc(N)[n+]1[O-] [2-amino-4-propylamino-6-piperidinopyrimidine 3-oxide] | –
41 | Nc1cc(N2CCCCC2)nc(N)[n+]1[O-] [Minoxidil, 2,4-diamino-6-piperidinopyrimidine 3-oxide, reference compound] | stimulatory effect on hair pigmentation
